Results from the Kinase Knowledgebase extract (Sharma et al. 2016).

Target: PIK3CA (human) (UniProt P42336)
Assay: Cell-Based Assay
Details: bt20

PIK3CA (human), sequence (P42336 whole entry, looked up): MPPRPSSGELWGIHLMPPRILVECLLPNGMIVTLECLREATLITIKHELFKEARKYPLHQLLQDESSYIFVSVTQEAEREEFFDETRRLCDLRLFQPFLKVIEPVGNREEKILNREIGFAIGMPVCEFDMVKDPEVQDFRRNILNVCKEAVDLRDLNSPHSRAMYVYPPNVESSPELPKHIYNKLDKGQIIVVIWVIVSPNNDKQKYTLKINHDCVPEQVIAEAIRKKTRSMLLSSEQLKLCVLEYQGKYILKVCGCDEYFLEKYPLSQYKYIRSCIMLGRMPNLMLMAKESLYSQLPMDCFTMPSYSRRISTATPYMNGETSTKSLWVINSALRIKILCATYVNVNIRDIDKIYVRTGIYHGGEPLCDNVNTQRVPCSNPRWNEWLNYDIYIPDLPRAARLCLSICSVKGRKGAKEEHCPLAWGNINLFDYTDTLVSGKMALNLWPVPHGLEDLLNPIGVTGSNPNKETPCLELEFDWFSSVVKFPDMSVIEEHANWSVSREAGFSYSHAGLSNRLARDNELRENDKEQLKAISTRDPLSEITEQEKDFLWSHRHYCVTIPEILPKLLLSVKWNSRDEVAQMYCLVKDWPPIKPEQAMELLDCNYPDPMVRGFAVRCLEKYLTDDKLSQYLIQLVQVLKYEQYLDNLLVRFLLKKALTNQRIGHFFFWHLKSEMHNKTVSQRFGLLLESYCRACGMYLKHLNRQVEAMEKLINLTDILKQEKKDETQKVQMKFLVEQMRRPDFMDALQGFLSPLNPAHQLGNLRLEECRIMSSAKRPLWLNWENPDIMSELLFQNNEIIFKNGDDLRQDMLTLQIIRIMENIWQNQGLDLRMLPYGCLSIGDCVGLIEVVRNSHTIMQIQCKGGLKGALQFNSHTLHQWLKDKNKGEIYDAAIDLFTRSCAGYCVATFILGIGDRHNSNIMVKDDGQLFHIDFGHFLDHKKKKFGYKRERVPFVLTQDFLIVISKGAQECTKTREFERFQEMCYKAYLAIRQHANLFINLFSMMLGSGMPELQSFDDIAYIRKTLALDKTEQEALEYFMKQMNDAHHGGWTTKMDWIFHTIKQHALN

Row | IC50 [nM] | SMILES
1 | 5040 | C[C@@H](CO)n1c(=O)n(C)c2cnc3ccc(-c4cnn(C)c4)nc3c21
2 | 68.9 | Cc1ccc(-c2ccc3ncc4c(c3n2)n(C2CCN(C(=O)CN)CC2)c(=O)n4C)cn1
3 | 7.34 | CNC(=O)N1CCC(n2c(=O)n(C)c3cnc4ccc(-c5cnc6ccccc6c5)nc4c32)CC1
4 | 19.6 | CC(C)OC(=O)N1CCC(n2c(=O)n(C)c3cnc4ccc(-c5cnc6ccccc6c5)nc4c32)CC1
5 | 344 | COc1ccc(-c2ccc3ncc4c(c3n2)n(CCN2CCNCC2)c(=O)n4C)cn1
6 | 264 | Cn1c(=O)n([C@H]2CC[C@H](O)CC2)c2c3nc(-c4cc[nH]n4)ccc3ncc21
7 | 331 | C[C@H](CO)n1c(=O)n(C)c2cnc3ccc(-c4cnc(N)nc4)nc3c21
8 | 35.6 | Cc1ccc(-c2ccc3ncc4c(c3n2)n(C2CCN(CCO)CC2)c(=O)n4C)cn1
9 | 101 | Cc1ccc(-c2ccc3ncc4c(c3n2)n(C2CCNCC2)c(=O)n4C)cn1
10 | 28 | Cn1c(=O)n(C2CCN(C(=O)C(C)(C)O)CC2)c2c3nc(-c4cnc5ccccc5c4)ccc3ncc21
11 | 34.6 | COc1ncc(-c2ccc3ncc4c(c3n2)n(C2CCN(C(C)=O)CC2)c(=O)n4C)cn1
12 | 29.4 | C[C@@H](O)C(=O)N1CCC(n2c(=O)n(C)c3cnc4ccc(-c5cnc6[nH]ncc6c5)nc4c32)CC1
13 | 3.36 | Cn1c(=O)n([C@H]2CC[C@H](O)CC2)c2c3nc(-c4cnc(N)nc4)ccc3ncc21
14 | 14.4 | COc1ccc(-c2ccc3ncc4c(c3n2)n(C2CCN(C(=O)CN(C)C)CC2)c(=O)n4C)cn1
15 | 27.2 | COc1ncc(-c2ccc3ncc4c(c3n2)n(C2CCN(C(=O)CO)CC2)c(=O)n4C)cn1
16 | 13.4 | Cn1c(=O)n(C2CCN(C(=O)OCc3ccccc3)CC2)c2c3nc(-c4cnc5ccccc5c4)ccc3ncc21
17 | 34.2 | COc1ncc(-c2ccc3ncc4c(c3n2)n(C2CCN(C(=O)[C@H](C)O)CC2)c(=O)n4C)cn1
18 | 22.8 | Cc1ccc(-c2ccc3ncc4c(c3n2)n(C2CCN(C)CC2)c(=O)n4C)cn1
19 | 266 | COc1ccc(-c2ccc3ncc4c(c3n2)n([C@@H](C)CO)c(=O)n4C)cn1
20 | 90.3 | COc1ncc(-c2ccc3ncc4c(c3n2)n(C2CCN(CC(N)=O)CC2)c(=O)n4C)cn1
21 | 9.17 | CC(=O)N1CCC(n2c(=O)n(C)c3cnc4ccc(-c5ccc(N)nc5)nc4c32)CC1

Row | IC50 [nM] | SMILES
22 | 11.3 | COc1ccc(-c2ccc3ncc4c(c3n2)n(C2CCN(C(C)=O)CC2)c(=O)n4C)cc1
23 | 9.91 | Cn1c(=O)n(C2CCN(C(=O)C(C)(C)O)CC2)c2c3nc(-c4cnc5[nH]ncc5c4)ccc3ncc21
24 | 15.3 | COCC(=O)N1CCC(n2c(=O)n(C)c3cnc4ccc(-c5cnc6[nH]ncc6c5)nc4c32)CC1
25 | 32.5 | CN(C)c1ccc(-c2ccc3ncc4c(c3n2)n(C2CCN(CCO)CC2)c(=O)n4C)cn1
26 | 32.2 | O=C(OCc1ccccc1)N1CCC(n2c(=O)[nH]c3cnc4ccc(-c5cnc6ccccc6c5)nc4c32)CC1
27 | 402 | N[C@H]1CC[C@H](n2c(=O)[nH]c3cnc4ccc(-c5cnc6ccccc6c5)nc4c32)CC1
28 | 12.3 | COCC(=O)N1CCC(n2c(=O)n(C)c3cnc4ccc(-c5cnc(OC)nc5)nc4c32)CC1
29 | 237 | COc1ccc(-c2ccc3ncc4c(c3n2)n([C@H](C)CO)c(=O)n4C)cn1
30 | 448 | Cn1c(=O)n([C@H]2CC[C@H](O)CC2)c2c3nc(-c4cnn(CCO)c4)ccc3ncc21
31 | 5.26 | CN(C)c1ccc(-c2ccc3ncc4c(c3n2)n([C@H]2CC[C@H](O)CC2)c(=O)n4C)cn1
32 | 59.4 | Cn1c(=O)n(C2CCN(C(=O)CO)CC2)c2c3nc(-c4cnc5[nH]ncc5c4)ccc3ncc21
33 | 27.3 | Cc1ccc(-c2ccc3ncc4c(c3n2)n(C2CCOCC2)c(=O)n4C)cn1
34 | 29.4 | CC(C)C(=O)N1CCC(n2c(=O)n(C)c3cnc4ccc(-c5cnc6ccccc6c5)nc4c32)CC1
35 | 218 | C[C@H](O)C(=O)N1CCC(n2c(=O)n(C)c3cnc4ccc(-c5ccnc6[nH]ncc56)nc4c32)CC1
36 | 68.1 | CNC(=O)N1CCC(n2c(=O)n(C)c3cnc4ccc(-c5cnc(OC)nc5)nc4c32)CC1
37 | 18 | CN(C)CC(=O)N1CCC(n2c(=O)n(C)c3cnc4ccc(-c5cnc6ccccc6c5)nc4c32)CC1
38 | 39.9 | CCNC(=O)Nc1ccc(-c2ccc3ncc4c(c3n2)n(C2CCN(C(=O)OC(C)(C)C)CC2)c(=O)n4C)cc1
39 | 55.3 | C[C@H](CO)n1c(=O)n(C)c2cnc3ccc(-c4cccc5[nH]ccc45)nc3c21
40 | 24.5 | COc1ccc(-c2ccc3ncc4[nH]c(=O)n(Cc5ccccc5)c4c3n2)cn1
41 | 42.7 | Cc1ccc(-c2ccc3ncc4c(c3n2)n(C2CCN(C(=O)CN(C)C)CC2)c(=O)n4C)cn1
